Entries after “also recorded” stand apart in the source; their conditions may differ.
Key:
[1] = Particle size and surface potential of pDNA-encapsulating MENDs, dynamic light scattering (Zetasizer Nano); format: physicochemical
Protocol: A solution of pDNA encoding luciferase gene and protamine (CALBIOCHEM) solution were diluted with 10 mM HEPES buffer to 0.3 mg/mL and […], respectively. While stirring 0.3 mg/mL pDNA (125 μL), 0.24 mg/mL protamine (125 μL) was added dropwise in small portions to prepared an electrostatic complex of protamine and pDNA (N/P ratio=1.2) as a core of the vector. In the method described in the following (2), 10 mM HEPES buffer (pH 5.3) was used and, in the method described in (3), 10 mM HEPES buffer (pH 7.4) was used.
A lipid solution in ethanol was prepared by mixing 5 mM cationic lipid, 5 mM phospholipid and 5 mM cholesterol (Chol) at desired ratios to achieve 165 nmol total lipid in an Eppendorf tube, further adding various PEG lipids (1 mM solution in ethanol) in an amount corresponding to 3 mol % of the total lipid, and adding ethanol to achieve a total volume of 100 μL. While stirring the lipid solution in a vortex mixer, 100 μL of the nucleic acid electrostatic complex (10 mM HEPES; pH 5.3) prepared in [Experimental Example 1] (1) was quickly added, and thereafter 10 mM HEPES buffer (1.8 mL, adjusted to pH 5.3) was added to dilute the mixture to an ethanol concentration of 5%. The mixture was concentrated to about 50 μL by ultrafiltration using Amicon Ultra 4 (Millipore) under centrifugation conditions (room temperature, 2267 rpm, 20 min). Thereafter, it was diluted to 4 mL with 100 mM HEPES buffer (adjusted to pH 7.4), and again concentrated by centrifugation (2267 rpm, 20 min) under room temperature conditions. Finally, it was diluted with 10 mM HEPES buffer (pH 7.4) to a desired lipid concentration.
A solution of each lipid in chloroform (5 mM DOTAP 24.75 μL, 5 mM DOPE 33 μL, 5 mM Chol 24.75 μL) were mixed in a glass test tube at DOTAP:DOPE:Chol=3:4:3 to achieve 412.5 nmol total lipid. Ethanol was added to a total amount of 250 μL, and the mixture was dried under reduced pressure in a desiccator. The solvent was evaporated to give a lipid thin film. To the lipid thin film was added 250 μL of the gene electrostatic complex (in 10 mM HEPES; pH 7.4) prepared in [Experimental Example 1] (1) to a total lipid concentration of 1.65 mM, and the mixture was stood at room temperature for 10 min to allow for hydration, and sonicated by a sonicator (AIWA MEDICAL […] CO., LTD.) for 1 min.
The particle size and the surface potential were measured by the dynamic light scattering method (Zetasizer Nano; Malve Rn). The particle size and the surface potential of the various MENDs prepared by the preparation method of [Experimental Example 1] are shown in Table 3. The charge of B-2 and DODAP at physiological pH was in a preferable mode of −10 to +10 mV, whereas that of B-2-1 was +12.3, which is not less than +10 mV.
(1) MEND having a composition of B-2-4 (Example 4):DOPE:Chol=3:3:4 or B-2-5 (Example 5):POPE:Chol=3:4:3 was prepared according to the method described in [Experimental Example 1] (1) and (2).
The particle size and the surface potential were measured by the dynamic light scattering method (Zetasizer Nano; Malvern). The particle size and the surface potential of the various MENDs prepared by the preparation method of [Experimental Example 1] are shown in Table 4.

[2] = tested on: HT1080 cells; assay: Gene expression by MEND (luciferase assay, RLU/mg protein); format: cell-based; details: for gene expression activity: B-2-4:DOPE:Chol=3:3:4, B-2-5:POPE:Chol=3:3:4, B-2:SOPE:Chol=5:3:2, PEG2000-DMG; for gene expression activity (luciferase activity per cell protein): cationic lipid:SOPE:Chol=3:4:3, PEG2000DSG, pDNA 0.4 μg/well, 24 hr
Protocol: Using B-2 (Example 1), B-2-1 (Comparative Example 1), and DODAP (Comparative Example 2) as cationic lipids, MENDs having a composition of cationic lipid:SOPE:Chol=3:4:3 were prepared by the method described in [Experimental Example 1] (2). For the preparation, PEG2000DSG was used as PEG lipid, and MEND solutions corresponding to 0.55 mM of the lipid concentration were prepared. For cationic MEND, lipids having a composition of DOTAP:DOPE:Chol:=3:4:3 were used, and the cationic MEND was prepared according to the method described in [Experimental Example 1] (3).
HT1080 cells were plated on a 24-well plate at 4×10^4 cells/500 μL/well 24 hr before, various MENDs were diluted with DMEM (FBS 10%+) to a pDNA amount of 0.4 μg/500 μL/well and transfected. 24 hr later, the cells were washed with PBS(−) (500 μL), 1× Lysis buffer was added to each well by 75 μL, and the mixture was stood at −80° C. for 30 min or longer. The frozen 24-well plate was thawed on ice, the cells were detached with a cell scraper, and the total amount thereof was transferred into an Eppendorf tube and centrifuged under the conditions of 15000 rpm, 4° C., 5 min. The supernatant (50 μL) was recovered in a different Eppendorf tube, and used for luciferase assay and BCA assay.
20 μL thereof was mixed with a Luciferase assay substrate (50 μL), and the luciferase activity in a given time was measured by a luminometer. The obtained lysate was diluted 5-fold with DDW to achieve 25 μL total volume. Thereto was added BCA Protein Assay Reagent (200 μL), and the mixture was stood at 37° C. for 30 min. Thereafter, the absorbance at 562 nm was measured, and the protein amount of the sample was calculated from the absorbance of a BSA solution having a known concentration. The luciferase activity (RLU) was adjusted by dividing with protein amount (mg), and the luciferase activity per cell protein amount (RLU/mg protein) was calculated.
Using B-2 (Example 1), B-2-2 (Example 2), and B-2-3 (Example 3) as cationic lipids, MENDs having a composition of cationic lipid:SOPE:Chol=3:4:3 were prepared by the method described in [Experimental Example 1] (2). For the preparation, PEG2000DSG was used as PEG lipid, and MEND solutions corresponding to 0.55 mM of the lipid concentration were prepared. The gene expression was evaluated by the method described in [Example 4] (2).
Using compositions of B-2-4 (Example 4):DOPE:Chol=3:3:4, B-2-5 (Example 5):POPE:Chol=3:3:4, B-2 (Example 1):SOPE:Chol=5:3:2 as lipids, MENDs were prepared according to [Experimental Example 1](1) and (2). For the preparation, PEG2000-DMG was used as PEG lipid, and MEND solutions corresponding to 0.55 mM of the lipid concentration were prepared.
The gene expression activity was evaluated by the method described in [Experimental Example 4] (2).

[3] = pDNA MEND, cationic lipid:DOPE:Chol = 3:3:4
[4] = pDNA MEND, cationic lipid:SOPE:Chol = 3:4:3
[5] = pDNA MEND, cationic lipid:SOPE:Chol = 5:3:2
[6] = pDNA MEND, DOTAP:DOPE:Chol = 3:4:3
[7] = pDNA MEND, cationic lipid:POPE:Chol = 3:4:3

Row | PDI [1, 4] | size (nm) [1, 4] [nm] | zeta (mV) [1, 4] [mV] | PDI [1, 5] | size (nm) [1, 5] [nm] | zeta (mV) [1, 5] [mV] | SMILES | gene expression activity [2] | gene expression activity (luciferase activity per cell protein) [2] | other results
1 | – | – | – | – | – | – | CC1=C(/C=C/C(C)=C/C=C/C(C)=C/C(=O)OCCCN(C)CCSSCCN(C)CCCOC(=O)/C=C(C)/C=C/C=C(C)/C=C/C2=C(C)CCCC2(C)C)C(C)(C)CCC1 [Example B-2-4] | significantly higher than the activity of B-2 and B-2-5 | – | PDI [1, 3]: 0.12; size (nm) [1, 3]: 146.7 nm; zeta (mV) [1, 3]: −7.22 mV
2 | 0.093 | 151.1 | −3.18 | 0.106 | 165.6 | 4.13 | CCCCCCCC/C=C\CCCCCCCC(=O)OCC(CN(C)C)OC(=O)CCCCCCC/C=C\CCCCCCCC (stereo not shown) [DODAP, reference compound] | – | – | –
3 | – | – | – | – | – | – | CCCCCCCC/C=C\CCCCCCCC(=O)OCC(C[N+](C)(C)C)OC(=O)CCCCCCC/C=C\CCCCCCCC (stereo not shown) [DOTAP, reference compound] | – | – | surface potential of MEND ([1]; pDNA MEND using DOTAP): about +50 mV; PDI [1, 6]: 0.295; size (nm) [1, 6]: 235.8 nm; zeta (mV) [1, 6]: 57.9 mV
4 | 0.07 | 150.3 | 12.4 | 0.084 | 147.8 | 12.3 | CCCCCCCCCCCCCC(=O)OCCCN(C)CCCCCCN(C)CCCOC(=O)CCCCCCCCCCCCC [Example B-2-1, reference compound] | – | exceeded that of a conventionally-known cationic lipid, DODAP | charge at physiological pH ([1]; pDNA MEND): +12.3 mV
5 | – | – | – | – | – | – | Cc1c(C)c2c(c(C)c1OC(=O)CCC(=O)OCCCN(C)CCSSCCN(C)CCCOC(=O)CCC(=O)Oc1c(C)c(C)c3c(c1C)CCC(C)(CCCC(C)CCCC(C)CCCC(C)C)O3)CCC(C)(CCCC(C)CCCC(C)CCCC(C)C)O2 (stereo not shown) [Example B-2-5] | equivalent to the activity of B-2 | – | PDI [1, 7]: 0.15; size (nm) [1, 7]: 131.7 nm; zeta (mV) [1, 7]: −9.35 mV

Row | SMILES | PDI [1, 4] | size (nm) [1, 4] [nm] | zeta (mV) [1, 4] [mV] | PDI [1, 5] | size (nm) [1, 5] [nm] | zeta (mV) [1, 5] [mV] | gene expression activity [2] | gene expression activity (luciferase activity per cell protein) [2] | other results
6 | CCCCCCCCCCCCCC(=O)OCCCN(C)CCSSCCN(C)CCCOC(=O)CCCCCCCCCCCCC [Example B-2] | 0.14 | 156.3 | −0.08 | 0.11 | 168.9 | −2.95 | – | exceeded that of a conventionally-known cationic lipid, DODAP; also recorded: significantly higher than that of MEND prepared from B-2-1; also recorded: equivalent to that of DOTAP | gene transfer activity divided by the intracellular uptake amount ([2]; FIG. 4): high as compared to conventional DOTAP, DODAP and B-2-1
